For seven compounds, IC50, Activity and Papp results are on record in ChEMBL document CHEMBL1629479, “Old phenothiazine and dibenzothiadiazepine derivatives for tomorrow's neuroprotective therapies against neurodegenerative diseases” (Eur J Med Chem, 2010).

One data set concerns the target Cholinesterase (Equus caballus, UniProt P81908). As to the kind of experiment: Inhibition of equine serum BuChE by Ellman's method.
Data set [1] concerns SH-SY5Y. Briefly: Cytotoxicity against human SH-SY5Y cells assessed as LDH release at 100 uM after 24 hrs by UV-vis spectroscopy. In kind it is cell-based. On the technique in general: LDH leaks from cells whose membrane has failed.
Data set [2] has as its system SH-SY5Y. As to the kind of experiment: Neuroprotective activity against H2O2-induced oxidative stress in human SH-SY5Y cells assessed as LDH release at 1 uM after 24 hrs by UV-vis spectroscopy. The format is functional.
The test system of data set [3] is SH-SY5Y. As to the kind of experiment: Neuroprotective activity against H2O2-induced oxidative stress in human SH-SY5Y cells assessed as LDH release at 3 uM after 24 hrs by UV-vis spectroscopy. In kind it is functional.
The subject of data set [4] is SH-SY5Y. As to the kind of experiment: Neuroprotective activity against H2O2-induced oxidative stress in human SH-SY5Y cells assessed as LDH release at 30 uM after 24 hrs by UV-vis spectroscopy. The format is functional.
Data set [5] has as its system SH-SY5Y. As to the kind of experiment: Neuroprotective activity against H2O2-induced oxidative stress in human SH-SY5Y cells assessed as LDH release at 60 uM after 24 hrs by UV-vis spectroscopy. In kind it is functional.
Data set [6] relates to SH-SY5Y. Briefly: Neuroprotective activity against H2O2-induced oxidative stress in human SH-SY5Y cells assessed as LDH release at 100 uM after 24 hrs by UV-vis spectroscopy. In kind it is functional.
The subject of data set [7] is SH-SY5Y. As to the kind of experiment: Neuroprotective activity against rotenone and oligomycin-induced mitochondrial oxidative stress in human SH-SY5Y cells assessed as LDH release at 3 uM after 24 hrs using DCFH-DA fluorescent dye. In kind it is functional.
Data set [8] deals with SH-SY5Y. Briefly: Neuroprotective activity against rotenone and oligomycin-induced mitochondrial oxidative stress in human SH-SY5Y cells assessed as LDH release at 10 uM after 24 hrs using DCFH-DA fluorescent dye. The format is functional.
Data set [9] relates to SH-SY5Y. As to the kind of experiment: Neuroprotective activity against rotenone and oligomycin-induced mitochondrial oxidative stress in human SH-SY5Y cells assessed as LDH release at 30 uM after 24 hrs using DCFH-DA fluorescent dye. The format is functional.
Data set [10] relates to SH-SY5Y. Briefly: Neuroprotective activity against H2O2-induced oxidative stress in human SH-SY5Y cells assessed as LDH release at 30 uM after 24 hrs by UV-vis spectroscopy in presence of calcium channel blocker nimodipine. The format is functional.
The nature of data set [11]: Permeability of the compound by PAMPA at pH 7.4. In kind it is ADME. The conditions noted are these: read-out: permeability.
In another data set the target is T1, Acetylcholinesterase (Bos taurus, UniProt P23795).
T1 sequence (P23795 whole entry): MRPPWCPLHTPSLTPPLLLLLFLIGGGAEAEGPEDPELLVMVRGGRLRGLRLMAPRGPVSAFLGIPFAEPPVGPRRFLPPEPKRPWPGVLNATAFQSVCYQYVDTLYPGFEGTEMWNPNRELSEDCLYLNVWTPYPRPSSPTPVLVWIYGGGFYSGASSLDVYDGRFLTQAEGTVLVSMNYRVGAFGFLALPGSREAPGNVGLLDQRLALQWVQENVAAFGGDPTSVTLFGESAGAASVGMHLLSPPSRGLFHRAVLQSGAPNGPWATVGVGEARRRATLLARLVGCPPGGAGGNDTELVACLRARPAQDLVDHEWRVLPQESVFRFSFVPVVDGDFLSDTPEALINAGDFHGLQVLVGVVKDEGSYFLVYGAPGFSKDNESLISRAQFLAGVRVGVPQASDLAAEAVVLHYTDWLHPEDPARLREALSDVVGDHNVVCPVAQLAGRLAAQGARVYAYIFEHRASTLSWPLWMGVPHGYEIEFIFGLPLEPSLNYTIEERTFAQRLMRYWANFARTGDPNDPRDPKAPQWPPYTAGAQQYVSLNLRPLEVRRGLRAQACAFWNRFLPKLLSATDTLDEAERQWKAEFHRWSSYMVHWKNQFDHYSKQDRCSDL

Data set [12] concerns SH-SY5Y. As to the kind of experiment: Neuroprotective activity against H2O2-induced oxidative stress in human SH-SY5Y cells assessed as LDH release at 100 uM after 24 hrs by UV-vis spectroscopy in presence of calcium channel blocker nimodipine. In kind it is functional.

The structures appear in SMILES notation.

Chain of Cholinesterase (P81908 whole entry): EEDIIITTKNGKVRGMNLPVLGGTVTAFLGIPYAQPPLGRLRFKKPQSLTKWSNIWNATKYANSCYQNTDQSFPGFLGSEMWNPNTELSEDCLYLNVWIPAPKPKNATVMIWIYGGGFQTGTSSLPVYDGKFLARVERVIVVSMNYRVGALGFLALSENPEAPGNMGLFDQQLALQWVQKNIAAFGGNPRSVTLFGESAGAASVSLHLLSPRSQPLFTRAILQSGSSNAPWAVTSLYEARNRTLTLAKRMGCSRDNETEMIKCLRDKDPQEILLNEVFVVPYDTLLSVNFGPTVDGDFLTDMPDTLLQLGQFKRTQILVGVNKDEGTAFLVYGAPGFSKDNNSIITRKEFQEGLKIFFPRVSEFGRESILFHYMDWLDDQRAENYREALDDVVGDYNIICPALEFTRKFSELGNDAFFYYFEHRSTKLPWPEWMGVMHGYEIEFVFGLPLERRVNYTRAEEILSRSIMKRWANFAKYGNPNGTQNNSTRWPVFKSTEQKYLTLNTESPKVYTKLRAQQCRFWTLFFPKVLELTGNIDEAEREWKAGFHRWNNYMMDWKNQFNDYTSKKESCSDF
Description for Acetylcholinesterase: Inhibition of bovine erythrocyte AChE by Ellman's method

As for `CN(C)CCC(=O)NN1c2ccccc2Sc2cc(Cl)ccc21`, the figures for the IC50 on Cholinesterase and at Acetylcholinesterase were 0.7 µM and over 100 µM, respectively. Moreover, the Activity result with SH-SY5Y [1] is “Non-toxic”; with SH-SY5Y [2], 0%; in the data set on SH-SY5Y [3] it was 8.4%; with SH-SY5Y [4] it was 44.4%; in the data set on SH-SY5Y [5] it was 18.6%; with SH-SY5Y [6] it was 20.1%. The Activity turned out to be 21.4% in the data set on SH-SY5Y [7], 18.9% with SH-SY5Y [8], 52.9% in the data set with SH-SY5Y [9] and 6.5% in the data set with SH-SY5Y [10]. In addition, in data set [11], the Papp is 8.8 ×10⁻⁶ cm/s.
Regarding `CC(=O)NN1c2ccccc2Sc2ccc(Cl)cc21`, the IC50 against Cholinesterase and against Acetylcholinesterase was over 100 µM each time. Besides, the Activity result with SH-SY5Y [1] is given as “Non-toxic”; with SH-SY5Y [2], 0%; with SH-SY5Y [3] it was 0%; with SH-SY5Y [4], 0%; in the data set with SH-SY5Y [5], 0%; with SH-SY5Y [6] it was 0%.
For the compound `CN1CCN(NCCN2c3ccccc3Sc3ccccc32)CC1.Cl.Cl`, the results for the IC50 against Cholinesterase and on Acetylcholinesterase were 50 µM and over 100 µM, respectively. For the same compound, the Activity result in the data set on SH-SY5Y [1] is reported as “Non-toxic”; in the data set with SH-SY5Y [2], 14.1%; in the data set on SH-SY5Y [3], 8.3%; in the data set with SH-SY5Y [4], 22.1%; in the data set with SH-SY5Y [5], 36.9%; in the data set on SH-SY5Y [6], 42.1%. Besides, the Activity in the data set with SH-SY5Y [7] is recorded as 19.4%; with SH-SY5Y [8], 22.5%; with SH-SY5Y [9] it was 22.6%; in the data set with SH-SY5Y [12], 16.4%. Also, in [11], the Papp came out at 9.1 ×10⁻⁶ cm/s.
For `CC(=O)n1c2ccccc2sc2cccc(Cl)c2n1C(C)=O`, the IC50 on Cholinesterase and on Acetylcholinesterase was over 100 µM throughout. Besides, the Activity entry in the data set on SH-SY5Y [1] is reported as “Non-toxic”; in the data set on SH-SY5Y [2], 0%; in the data set with SH-SY5Y [3] it was 6.4%; in the data set on SH-SY5Y [4] it was 11.4%; with SH-SY5Y [5] it was 13.2%; with SH-SY5Y [6], 41%. For the same compound, the Activity in the data set on SH-SY5Y [7] is 48.5%; with SH-SY5Y [8], 43.4%; in the data set with SH-SY5Y [9], 38.9%; with SH-SY5Y [12] it was 0%. The Papp in data set [11] worked out at 7.7 ×10⁻⁶ cm/s.
As for `Cc1c(C)c2c(c(C)c1O)CCC(C)(C(=O)O)O2` (configuration not stated) [TROLOX], the Activity in the data set with SH-SY5Y [2] was found to be 0%; in the data set on SH-SY5Y [3] it was 0%; in the data set with SH-SY5Y [4], 57.7%; in the data set on SH-SY5Y [5] it was 55.7%; with SH-SY5Y [6], 64.2%; in the data set on SH-SY5Y [7] it was 52.9%. Further, the Activity in the data set on SH-SY5Y [8] was 43.2%; with SH-SY5Y [9], 39.3%; in the data set with SH-SY5Y [12], 60.3%.
Consider `NN1c2ccccc2Sc2ccccc21`, for which the IC50 on Cholinesterase and against Acetylcholinesterase was over 100 µM in each case. In addition, the Activity result was “Non-toxic” in the data set on SH-SY5Y [1]; 0% with SH-SY5Y [2]; 6.7% in the data set on SH-SY5Y [3]; 0% in the data set with SH-SY5Y [4]; 0% with SH-SY5Y [5]; 0% with SH-SY5Y [6].
Regarding `CN1CCN(CC(=O)NN2c3ccccc3Sc3cc(Cl)ccc32)CC1`, the IC50 – broadly, the midpoint of a concentration-inhibition curve – against Cholinesterase is 0.5 µM; at Acetylcholinesterase it was over 100 µM. Moreover, the Activity result in the data set on SH-SY5Y [1] is listed as “Non-toxic”; in the data set with SH-SY5Y [2], 12.5%; in the data set with SH-SY5Y [3], 17.1%; in the data set on SH-SY5Y [4], 37.9%; in the data set on SH-SY5Y [5], 18.4%; with SH-SY5Y [6] it was 18.8%.
